# Measurements from article PMC2213565 (The Journal of General Physiology, 2008).
# Like-named read-outs stand apart in the source and are kept apart here.
# What was measured:
# [1] = target: T1, 5-HT3A (Mus musculus, UniProt P23979); experiment: Two-electrode voltage clamp of Xenopus oocytes expressing 5-HT3A wild type; type: cell-based
# T1 sequence (P23979 24-489): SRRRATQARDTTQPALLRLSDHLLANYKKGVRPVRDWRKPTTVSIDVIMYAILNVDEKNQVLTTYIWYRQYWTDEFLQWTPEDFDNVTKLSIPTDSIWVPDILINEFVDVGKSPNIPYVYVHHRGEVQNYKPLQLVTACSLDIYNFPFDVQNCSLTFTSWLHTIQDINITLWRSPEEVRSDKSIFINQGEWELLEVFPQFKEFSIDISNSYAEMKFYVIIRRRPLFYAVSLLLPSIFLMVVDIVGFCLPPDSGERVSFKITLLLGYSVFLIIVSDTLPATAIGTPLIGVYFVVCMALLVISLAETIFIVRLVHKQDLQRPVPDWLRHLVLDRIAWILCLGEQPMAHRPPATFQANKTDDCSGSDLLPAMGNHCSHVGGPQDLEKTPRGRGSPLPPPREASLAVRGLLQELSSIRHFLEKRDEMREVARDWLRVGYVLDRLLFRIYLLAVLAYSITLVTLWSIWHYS
# [2] = target: 5-HT3A-glvM3M4 (Mus musculus, UniProt P23979); type: cell-based
# [3] = target: T1, 5-HT3A; experiment: Whole cell patch clamp of HEK293T cells transiently expressing 5-HT3A; type: cell-based; details: HEK293T cells expressing 5-HT3A
# [4] = target: T2, 5-HT3A-glvM3M4 (Mus musculus, UniProt P23979); experiment: Whole cell patch clamp of HEK293T cells transiently expressing 5-HT3A-glvM3M4; type: cell-based
# T2 sequence (P23979 24-326 limits assumed): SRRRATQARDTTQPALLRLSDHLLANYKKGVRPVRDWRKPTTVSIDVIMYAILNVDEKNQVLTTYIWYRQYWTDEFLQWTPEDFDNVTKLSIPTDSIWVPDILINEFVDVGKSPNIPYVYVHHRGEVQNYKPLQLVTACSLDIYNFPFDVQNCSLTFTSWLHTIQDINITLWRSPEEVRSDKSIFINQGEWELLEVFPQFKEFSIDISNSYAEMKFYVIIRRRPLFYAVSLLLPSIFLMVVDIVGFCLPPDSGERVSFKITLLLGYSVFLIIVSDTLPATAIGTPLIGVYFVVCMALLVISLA
# [5] = target: mouse 5-HT3A receptors; details: competitive antagonist; ref Costall et al., 1987; cited from earlier work
compound,measurement,setting,value
Cc1nccn1CC1CCc2c(c3ccccc3n2C)C1=O (centres unmarked) [ondansetron],inhibition of 5-HT currents,"[1]; 5-HT3A, EC30 concentration of 5-HT with ondansetron at 1/3 of the 5-HT concentration, n = 3",98.2 ± 0.4%
same,inhibition of 5-HT currents,"[2]; 5-HT3A-glvM3M4, EC30 concentration of 5-HT with ondansetron at 1/3 of the 5-HT concentration, n = 4",98.8 ± 0.4%
same,inhibition of whole cell currents evoked by 1 μM 5-HT,[3]; 100 nM ondansetron,totally inhibited
same,inhibition of whole cell currents evoked by 1 μM 5-HT,"[4]; HEK293T cells expressing 5-HT3A-glvM3M4, 100 nM ondansetron",totally inhibited
same,IC50 for inhibition of mouse 5-HT3A receptors,[5],high picomolar
COc1ccc([C@@H]2Sc3ccccc3N(CCN(C)C)C(=O)[C@@H]2OC(C)=O)cc1 [diltiazem],IC50,[1],16 ± 1 µM
same,IC50,[2],12 ± 3 µM
"NCCc1c[nH]c2ccc(O)cc12 [5-HT, 5-hydroxytryptamine]",whole cell currents evoked,[3]; 5-HT 1 μM,1 to 5 nA
same,whole cell currents evoked,"[4]; HEK293T cells expressing 5-HT3A-glvM3M4, 5-HT 1 μM",1 to 5 nA
Cc1cccc(C)c1NC(=O)C[N+](C)(C)C [QX-222],inhibition of 5-HT EC70 currents,"[1]; 5-HT3A-wt, QX-222 20 μM, n = 6",80 ± 4%
same,inhibition of 5-HT EC70 currents,"[2]; 5-HT3A-glvM3M4, QX-222 20 μM, n = 6",79 ± 2%
picrotoxin,IC50,"[1]; read-out: picrotoxin IC50, 5-HT3A-wt, coapplied with 5-HT EC30 concentration, n = 3",60 ± 10 µM
same,fold lower IC50 in 5-HT3A-glvM3M4 than in wild type,"[2]; picrotoxin IC50, 5-HT3A-glvM3M4 versus 5-HT3A-wt",10 fold
same,IC50,"[2]; read-out: picrotoxin IC50, 5-HT3A-glvM3M4, coapplied with 5-HT EC30 concentration, n = 6",6.8 ± 1.1 µM
